From patent US20150056702A1, “METHOD AND KIT FOR CULTURING STEM CELLS” (China Medical University, priority 2013, published 2015)

Tested on: Pou5fl-GFP MEF cells
Test: Examination of iPS cell generation efficiency (GFP fluorescence)
Assay type: cell-based, mouse
Excerpt: The MEF cells were isolated from Pou5fl-GFP transgenic mice (The Jackson lab). The pcDNA-Oct4, pcDNA-Sox2, pcDNA-c-Myc, and pcDNA-Klf4 plasmids were introduced once every two days (4 times total) into the Pou5fl-GFP MEF cells to generate iPS cells through co-transfection. The medium was changed to BP-containing medium 6 days post-transfection, and the medium was exchanged everyday. On day 9, the MEF cells were passaged onto feeder cells provided by Example 1 and the GFP-positive clones were observed. Finally, the GFP fluorescent signals of the iPS cells were detected by a fluorescent microscope. The fluorescent signal intensity is directly proportional to the cell generation efficiency.
This example includes two groups, BP (T+P) and BP (T), wherein BP (T+P) refers to the group cultured with the experimental group medium (BP10) post-transfection and after placing onto feeder cells, and BP (T) refers to the group cultured with the experimental group medium (BP10) post-transfection.

CCCC=C1OC(=O)c2ccccc21 [BP, n-butylidenephthalide]
GFP fluorescence intensity in the iPS cells formed (BP (T): BP10 medium post-transfection, Day 7): 20.5
GFP fluorescence intensity in the iPS cells formed (BP (T): BP10 medium post-transfection, Day 14): 70.5
GFP fluorescence intensity in the iPS cells formed (BP (T): BP10 medium post-transfection, Day 20): 65.5
GFP fluorescence intensity in the iPS cells formed (BP (T+P): BP10 medium post-transfection and after placing onto feeder cells, Day 7): 27.5
GFP fluorescence intensity in the iPS cells formed (BP (T+P): BP10 medium post-transfection and after placing onto feeder cells, Day 14): 82
GFP fluorescence intensity in the iPS cells formed (BP (T+P): BP10 medium post-transfection and after placing onto feeder cells, Day 20): 92.5
GFP fluorescent signals (iPS cell generation efficiency) (BP-containing iPS cell medium vs control group (without BP), result in words): higher GFP fluorescent signals
